Active and inactive are the calls of the source. Rule as the data show it: actives have a measured Kd and inactives only a lower limit. Bounds are passed on as bounds.

The results in this text go back to ChEMBL document CHEMBL3991601, “The target landscape of clinical kinase drugs” (Science, 2017).

The target in test [1] is T1, Ribosyldihydronicotinamide dehydrogenase [quinone] (Homo sapiens, UniProt P16083).
T1 sequence (P16083 whole entry): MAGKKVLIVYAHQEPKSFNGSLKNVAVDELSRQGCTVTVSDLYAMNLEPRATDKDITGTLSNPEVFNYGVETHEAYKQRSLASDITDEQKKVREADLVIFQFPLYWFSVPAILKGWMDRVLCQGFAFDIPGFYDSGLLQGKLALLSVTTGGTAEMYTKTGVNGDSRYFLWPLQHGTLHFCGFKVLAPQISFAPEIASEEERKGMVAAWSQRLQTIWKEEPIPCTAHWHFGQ

In a further test the target is T2, Ephrin type-B receptor 2 (Homo sapiens, UniProt P29323).
T2 sequence (P29323 whole entry): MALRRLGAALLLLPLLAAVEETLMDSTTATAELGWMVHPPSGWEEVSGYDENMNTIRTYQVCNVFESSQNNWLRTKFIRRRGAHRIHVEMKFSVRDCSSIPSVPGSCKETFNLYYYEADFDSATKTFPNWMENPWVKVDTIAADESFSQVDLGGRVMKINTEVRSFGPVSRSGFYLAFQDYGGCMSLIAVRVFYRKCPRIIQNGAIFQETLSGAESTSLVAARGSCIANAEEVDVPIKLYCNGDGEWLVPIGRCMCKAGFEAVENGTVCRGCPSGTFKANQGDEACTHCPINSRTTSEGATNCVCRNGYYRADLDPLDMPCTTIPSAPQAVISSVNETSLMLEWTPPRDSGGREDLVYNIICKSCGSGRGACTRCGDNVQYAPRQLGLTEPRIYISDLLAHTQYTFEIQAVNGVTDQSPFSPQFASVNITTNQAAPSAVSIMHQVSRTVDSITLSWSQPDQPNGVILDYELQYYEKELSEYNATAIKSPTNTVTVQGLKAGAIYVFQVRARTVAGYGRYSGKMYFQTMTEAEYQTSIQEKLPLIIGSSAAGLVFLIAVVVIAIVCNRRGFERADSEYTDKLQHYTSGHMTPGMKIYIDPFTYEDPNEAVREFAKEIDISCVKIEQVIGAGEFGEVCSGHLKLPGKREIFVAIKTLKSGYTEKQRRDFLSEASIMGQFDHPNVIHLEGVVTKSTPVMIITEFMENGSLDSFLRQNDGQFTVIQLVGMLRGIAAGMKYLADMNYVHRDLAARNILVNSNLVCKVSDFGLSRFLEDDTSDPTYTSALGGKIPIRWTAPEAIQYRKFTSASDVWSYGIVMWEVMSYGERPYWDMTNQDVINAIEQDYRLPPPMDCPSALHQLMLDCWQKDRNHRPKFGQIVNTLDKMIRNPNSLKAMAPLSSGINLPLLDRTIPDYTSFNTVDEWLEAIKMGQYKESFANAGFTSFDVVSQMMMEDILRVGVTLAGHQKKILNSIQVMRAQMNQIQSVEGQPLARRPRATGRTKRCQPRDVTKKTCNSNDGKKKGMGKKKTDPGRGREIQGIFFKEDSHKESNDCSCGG

Test [2] deals with Glycogen synthase kinase-3 alpha (Homo sapiens, UniProt P49840).
The target of test [3] is T3, Inhibitor of nuclear factor kappa-B kinase subunit epsilon (Homo sapiens, UniProt Q14164).
T3 sequence (Q14164 whole entry): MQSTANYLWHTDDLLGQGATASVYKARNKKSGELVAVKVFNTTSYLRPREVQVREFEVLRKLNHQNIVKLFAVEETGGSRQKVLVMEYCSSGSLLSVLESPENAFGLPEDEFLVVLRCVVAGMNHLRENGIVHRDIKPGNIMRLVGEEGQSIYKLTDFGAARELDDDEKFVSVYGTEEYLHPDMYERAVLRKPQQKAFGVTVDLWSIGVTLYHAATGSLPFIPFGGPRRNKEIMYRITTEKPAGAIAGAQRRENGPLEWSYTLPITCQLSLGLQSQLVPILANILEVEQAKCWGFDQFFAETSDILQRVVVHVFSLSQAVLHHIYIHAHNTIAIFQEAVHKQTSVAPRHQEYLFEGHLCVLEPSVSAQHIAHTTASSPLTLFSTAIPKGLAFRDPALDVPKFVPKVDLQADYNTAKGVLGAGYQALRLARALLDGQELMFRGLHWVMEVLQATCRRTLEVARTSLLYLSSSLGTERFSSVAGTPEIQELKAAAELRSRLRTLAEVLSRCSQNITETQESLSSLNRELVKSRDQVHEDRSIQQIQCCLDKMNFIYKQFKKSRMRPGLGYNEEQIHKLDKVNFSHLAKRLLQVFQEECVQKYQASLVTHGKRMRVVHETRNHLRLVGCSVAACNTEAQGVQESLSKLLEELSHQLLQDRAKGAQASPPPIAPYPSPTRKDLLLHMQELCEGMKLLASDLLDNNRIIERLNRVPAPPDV

Test [4] addresses Ribosomal protein S6 kinase alpha-5 (Homo sapiens, UniProt O75582).
Test [5] has as its target T4, Calcium/calmodulin-dependent protein kinase type IV (Homo sapiens, UniProt Q16566).
T4 sequence (Q16566 whole entry): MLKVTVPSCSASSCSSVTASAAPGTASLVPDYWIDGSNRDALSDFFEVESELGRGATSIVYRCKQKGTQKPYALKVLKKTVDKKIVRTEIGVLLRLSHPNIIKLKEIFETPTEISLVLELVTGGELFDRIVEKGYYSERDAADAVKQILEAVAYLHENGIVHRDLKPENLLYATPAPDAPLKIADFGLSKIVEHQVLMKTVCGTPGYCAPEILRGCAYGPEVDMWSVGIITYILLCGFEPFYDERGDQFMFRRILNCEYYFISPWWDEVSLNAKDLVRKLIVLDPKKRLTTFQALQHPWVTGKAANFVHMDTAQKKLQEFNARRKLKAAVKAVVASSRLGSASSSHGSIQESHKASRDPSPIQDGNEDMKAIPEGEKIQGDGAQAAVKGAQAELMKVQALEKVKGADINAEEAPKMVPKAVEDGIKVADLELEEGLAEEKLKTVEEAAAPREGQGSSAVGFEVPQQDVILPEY
Also: in the data inactive means no Kd found up to 30 µM.

Ribosomal protein S6 kinase alpha-5, sequence (O75582 whole entry): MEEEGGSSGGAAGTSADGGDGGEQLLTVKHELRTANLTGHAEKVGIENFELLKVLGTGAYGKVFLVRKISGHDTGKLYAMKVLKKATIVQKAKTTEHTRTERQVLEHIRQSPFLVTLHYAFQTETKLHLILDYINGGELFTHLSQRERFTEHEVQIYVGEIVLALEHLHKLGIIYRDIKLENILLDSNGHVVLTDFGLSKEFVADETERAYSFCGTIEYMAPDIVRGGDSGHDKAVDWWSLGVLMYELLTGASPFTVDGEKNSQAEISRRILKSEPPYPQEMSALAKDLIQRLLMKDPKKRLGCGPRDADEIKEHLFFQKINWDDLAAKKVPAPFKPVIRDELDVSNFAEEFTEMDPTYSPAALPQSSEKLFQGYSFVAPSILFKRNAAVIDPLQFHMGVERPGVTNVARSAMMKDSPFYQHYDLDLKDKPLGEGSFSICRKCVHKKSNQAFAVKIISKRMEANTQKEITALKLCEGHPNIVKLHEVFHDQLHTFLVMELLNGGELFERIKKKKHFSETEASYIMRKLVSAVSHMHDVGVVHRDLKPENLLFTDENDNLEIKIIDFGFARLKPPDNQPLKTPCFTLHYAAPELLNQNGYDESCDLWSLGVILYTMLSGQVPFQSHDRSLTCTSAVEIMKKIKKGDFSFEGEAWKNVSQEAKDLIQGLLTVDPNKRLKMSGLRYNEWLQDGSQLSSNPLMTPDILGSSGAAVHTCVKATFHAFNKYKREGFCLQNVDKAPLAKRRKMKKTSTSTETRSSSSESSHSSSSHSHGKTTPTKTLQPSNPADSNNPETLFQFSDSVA
Glycogen synthase kinase-3 alpha, sequence (P49840 whole entry): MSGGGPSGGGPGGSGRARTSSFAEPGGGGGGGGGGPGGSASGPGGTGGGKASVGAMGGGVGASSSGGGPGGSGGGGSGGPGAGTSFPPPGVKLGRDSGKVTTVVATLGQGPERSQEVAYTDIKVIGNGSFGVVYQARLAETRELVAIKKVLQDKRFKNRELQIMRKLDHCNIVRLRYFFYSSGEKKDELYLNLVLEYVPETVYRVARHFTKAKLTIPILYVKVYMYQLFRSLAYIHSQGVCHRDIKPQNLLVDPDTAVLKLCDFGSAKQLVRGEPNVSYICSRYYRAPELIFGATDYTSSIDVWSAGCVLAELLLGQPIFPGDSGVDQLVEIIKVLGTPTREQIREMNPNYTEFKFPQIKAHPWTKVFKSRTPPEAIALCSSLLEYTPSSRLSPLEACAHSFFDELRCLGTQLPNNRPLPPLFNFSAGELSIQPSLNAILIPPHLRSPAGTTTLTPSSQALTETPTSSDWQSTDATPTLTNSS

On to `CNC(=O)c1cc(COc2nnc(Nc3ccc(Cl)cc3)c3ccoc23)ccn1` [TELATINIB], for which the Kd (in test [1]; on Ephrin type-B receptor 2; in test [2]; in test [3]; in test [4]; in test [5]) was > 30 µM (inactive) each time.
For `CNC(=O)c1cccc(-c2ccc3c(N4CCOC[C@@H]4C)nc(N4CCOC[C@@H]4C)nc3n2)c1` [VISTUSERTIB], the Kd (in test [1]; at Ephrin type-B receptor 2; in test [2]; in test [3]; in test [4]; in test [5]) was > 30 µM (inactive) in each case.
With `O=C(NC[C@H](O)CO)c1ccncc1Nc1ccc(I)cc1F` [PIMASERTIB], the Kd (in test [1]; at Ephrin type-B receptor 2; in test [2]; in test [3]; in test [4]; in test [5]) was > 30 µM (inactive) each time.
Consider `CC(C)CC(=O)Nc1[nH]nc2c1CN(C(=O)C1CCN(C)CC1)C2(C)C` [PHA-793887], for which the Kd (usually the constant that tells how readily two partners part at equilibrium) in test [1] is > 30 µM (inactive); on Ephrin type-B receptor 2, > 30 µM (inactive); in test [2], 0.029 µM (active); in test [3], > 30 µM (inactive); in test [4] it was > 30 µM (inactive); in test [5] it was > 30 µM (inactive).
Turning to `O=C(NOC[C@H](O)CO)c1ccc(F)c(F)c1Nc1ccc(I)cc1F` [MIRDAMETINIB], the Kd (in test [1]; on Ephrin type-B receptor 2; in test [2]; in test [3]; in test [4]; in test [5]) was > 30 µM (inactive) in each case.
Take `COc1ccc2c(OCc3nnc4ccc(-c5ccccc5)nn34)ccnc2c1` [AMG-208]: the Kd (in test [1]; at Ephrin type-B receptor 2; in test [2]; in test [3]; in test [4]; in test [5]) was > 30 µM (inactive) each time.
For the compound `COc1ccc(-c2ccc3ncc4c(c3c2)n(-c2ccc(N3CCNCC3)c(C(F)(F)F)c2)c(=O)n4C)cn1` [BGT-226 FREE BASE], the Kd in test [1] was > 30 µM (inactive); on Ephrin type-B receptor 2, > 30 µM (inactive); in test [2] it was 3.4 µM (active); in test [3], > 30 µM (inactive); in test [4] it was > 30 µM (inactive); in test [5] it was > 30 µM (inactive).
